Source: patent US20250099420A1, “SMALL MOLECULE MODULATORS OF GPR139 COMPLEX” (University of Florida Research Foundation, Incorporated, priority 2022, published 2025)

How the values were obtained:
[1] = tested on: parental HEK cells; assay: HEK parental Antagonist Counterscreen Assay (non-transfected cells, acetylcholine control); type: cell-based; settings: for EC50: Homo sapiens, HEK293, acetylcholine as control, scientific notation, molarity
Description: C. […] The HEK parental counterscreen utilized the same cells but not transfected with the plasmid. The agonist and antagonist modes were run the same way as the primary screen but acetylcholine was used in place of GPR139 agonist as the control compound.
The HEK parental counterscreen utilized the same cells but not transfected with the plasmid. The antagonist modes assays utilized the cells being plated in the 1536 well plate overnight in growth media prior to dye loading in PDL coated plates and acetylcholine was used in place of GPR139 agonist as the control compound.
The HEK parental counterscreen utilized the same cells but not transfected with the plasmid. Acetylcholine was used in place of GPR139 agonist as the control compound. The cells were plated overnight, similar to the HEK antagonist counterscreen protocol.
The HEK parental counterscreens utilized the same cells but not transfected with the plasmid. Acetylcholine was used in place of GPR139 agonist as the control compound. The cells were plated overnight, similar to the HEK antagonist counterscreen protocol.
For each test compound, percent activation was plotted against compound concentration. A four parameter equation describing a sigmoidal dose-response curve was then fitted with adjustable baseline using Assay Explorer software (Symyx Technologies Inc.).

[2] = molecular target: T1, GPR139 (Homo sapiens, UniProt Q6DWJ6); assay: GPR139 Agonist titration / agonist counterscreen assay (calcium detection, HEK-GPR139 cells); type: cell-based; design: expressed in transfected cells; host or cells: HEK Aequorin cells, Maxcyte transient transfection; settings: agonist counterscreen of the antagonists; for EC50: scientific notation, molarity, read-out: GRP139 Agonist activity EC50
T1 sequence (Q6DWJ6 1-353): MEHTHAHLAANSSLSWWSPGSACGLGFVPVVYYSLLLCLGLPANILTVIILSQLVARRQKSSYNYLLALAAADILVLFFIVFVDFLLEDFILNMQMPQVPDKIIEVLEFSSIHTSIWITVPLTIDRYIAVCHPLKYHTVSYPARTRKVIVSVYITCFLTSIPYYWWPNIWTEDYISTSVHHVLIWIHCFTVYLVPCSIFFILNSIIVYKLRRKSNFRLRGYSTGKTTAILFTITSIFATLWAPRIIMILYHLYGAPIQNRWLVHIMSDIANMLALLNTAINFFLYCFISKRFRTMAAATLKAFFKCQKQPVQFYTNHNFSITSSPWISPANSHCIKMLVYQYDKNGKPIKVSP
Description: GPR activity was assessed using a calcium detection assay. […] Negative control samples were treated with DMSO. […] Intracellular calcium was measured using Calcium 5.

[3] = molecular target: T1, GPR139; assay: GPR139 Antagonist titration assay (calcium detection, HEK-GPR139 cells, vs EC80 of S-JNJ-63533054); settings: for GPR139 Antagonist Activity Averaged Max % Response (±St. Dev.): activity relative to known control; for GPR139 Antagonist Activity Lipophilic Efficiency (logD): based on logD; for GPR139 Antagonist Activity Lipophilic Efficiency (logP): based on logP; for GPR139 Antagonist Activity Hill Slope: fitted dose-response curve

| SMILES | HEK antagonist activity Averaged Max % Response (±St. Dev.) [1] | EC50 [1] | GRP139 Agonist activity Averaged Max % Response (±St. Dev.) [2] | EC50 [2] | EC50 [3] | GPR139 Antagonist Activity Ligand Efficiency [3] | GPR139 Antagonist Activity Averaged Max % Response (±St. Dev.) [3] | GPR139 Antagonist Activity Lipophilic Efficiency (logD) [3] | GPR139 Antagonist Activity Lipophilic Efficiency (logP) [3] | GPR139 Antagonist Activity Hill Slope [3] | GRP139 Agonist activity Hill Slope [2] |
| --- | --- | --- | --- | --- | --- | --- | --- | --- | --- | --- | --- |
| COc1cc(C(=O)Nc2ccc(N3C(=O)c4ccc(Cl)cc4C3=O)c(C)c2)cc(OC)c1OC [SR-01000419723] | 25.06 ± 17.50% | > 10.6 µM | 3.98 ± 7.81% | > 10.6 µM | 2.1 µM | 0.23 | 82.63 ± 2.69% | 1.36 | 1.36 | 0.63 | – |
| CC(=O)N1N=C(c2ccc(C)cc2)CC1c1ccccc1F (centres unmarked) [SR-01000429850] | −3.2E+0 ± 5.20 ^ % | > 15.5 µM | 4.88 ± 6.79% | – | – | 0.31 | 48.35 ± 1.75% | 1.00 | 1.00 | – | – |
| O=C(Nn1c(-c2cccc(Cl)c2)nc2ccccc2c1=O)c1cc(Br)ccc1Cl [SR-01000433654] | 23.11 ± 4.71% | > 10.9 µM | 7.71 ± 3.46% | > 10.9 µM | 7 µM | 0.25 | 82.91 ± 7.41% | −712.7E−3 | −712.7E−3 | 0.97 | – |
| O=c1c(-c2ccc(Cl)cc2)c(C(F)(F)F)oc2cc(O)ccc12 [SR-01000438114] | 104.21 ± 5.67% | 4.2 µM | 68.19 ± 17.63% | 9.1 µM | 0.98 µM | 0.37 | 82.02 ± 2.67% | 2.55 | 1.57 | 1.59 | 1.01 |
| Cc1ccc(Oc2ccc(OCC(=O)N3C(C)CCCC3C)cc2)cc1 (centres unmarked) [SR-01000445554] | 26.51 ± 5.44% | > 13.6 µM | 28.29 ± 7.43% | > 13.6 µM | > 4.5 µM | 0.29 | 80.54 ± 5.09% | 0.71 | 0.71 | – | – |
| CCCc1sc(N2CCN(C(=O)c3ccccc3)CC2)nc1-c1ccccc1 [SR-01000451510] | 16.06 ± 4.81% | > 11.7 µM | −9.5E+0 ± 9.17 ^ % | > 11.7 µM | 8.8 µM | 0.25 | 57.55 ± 8.35% | −866.9E−3 | −866.9E−3 | 1.89 | – |
| O=C(NCCC1CCCCC1)N1c2ccccc2Sc2ccccc21 [SR-01000452455] | 0.92 ± 5.75% | > 12.5 µM | 15.11 ± 5.37% | > 12.5 µM | 3.6 µM | 0.32 | 87.35 ± 5.76% | 0.49 | 0.49 | 1.28 | – |
| COc1cccc(OC)c1C(=O)Oc1ccc2c(=O)c(-c3ccc(Cl)cc3)c(C(F)(F)F)oc2c1 [SR-01000471218] | 69.47 ± 1.93% | 10.1 µM | 19.55 ± 6.15% | > 10.5 µM | 1.1 µM | 0.24 | 90.79 ± 3.84% | −130.5E−3 | −130.5E−3 | 1.41 | – |
| CCn1cc(Cl)c(C(=O)OCC23CCC4c5ccccc5OC(C)(CC2C)C4C3C)n1 (centres unmarked) [SR-01000479575] | 11.60 ± 7.12% | > 7.6 µM | −2.2E+0 ± 2.25 ^ % | – | – | 0.24 | 58.09 ± 4.56% | 0.55 | 0.55 | 2.37 | – |
| Cc1cc(C(F)(F)F)nc(SCC(=O)Nc2cccc(C(F)(F)F)c2)c1C#N [SR-01000507831] | 11.97 ± 1.54% | > 13.9 µM | 2.74 ± 8.83% | > 13.9 µM | > 13.9 µM | 0.24 | 49.37 ± 5.06% | −233.9E−3 | −233.9E−3 | – | – |
| CCCCCCOC(=S)SCC(=O)Nc1ccccc1 [SR-01000508699] | 23.85 ± 9.06% | > 12 µM | 25.84 ± 3.55% | > 12 µM | 2.7 µM | 0.39 | 85.61 ± 2.70% | 0.57 | 0.57 | 1.30 | – |
| Cc1cc(C)c(NC(=O)c2ccc(Br)cc2)c(C)c1NC(=O)c1ccc(Br)cc1 [SR-01000512383] | 33.99 ± 7.44% | > 8.9 µM | 6.60 ± 4.93% | > 8.9 µM | 2.2 µM | 0.27 | 58.56 ± 7.31% | −1.6E+0 | −1.6E+0 | 1.46 | – |
| Brc1ccc2[nH]cc(-c3nnc4ccc5ccccc5n34)c2c1 [SR-01000524226] | −2.2E+0 ± 7.28 ^ % | > 13.3 µM | −11.2 ± 4.96% | > 13.3 µM | 10.2 µM | 0.30 | 60.57 ± 14.37% | 1.28 | 1.28 | 1.32 | – |
| COc1ccc(C(C(=O)NC(C)c2ccccc2)(c2ccccc2)c2ccccc2)cc1 (centres unmarked) [SR-01000529482] | 16.45 ± 6.46% | > 10.8 µM | 3.89 ± 5.42% | > 10.8 µM | 7.9 µM | 0.22 | 56.80 ± 4.90% | −1.1E+0 | −1.1E+0 | 0.94 | – |
| O=C(CSc1nc(-c2ccccc2)cn1-c1ccc(F)cc1)Nc1ccccc1 [SR-01000555413] | −6.1E+0 ± 7.39 ^ % | > 11.3 µM | 5.85 ± 3.71% | > 11.3 µM | 5 µM | 0.26 | 77.15 ± 0.74% | −521.6E−3 | −521.7E−3 | 1.24 | – |
| Cc1ccc(-n2cc(-c3ccccc3)nc2OCC(=O)Nc2ccccc2C)cc1 [SR-01000555462] | 9.21 ± 12.02% | > 11 µM | 1.48 ± 6.53% | > 11 µM | 5.2 µM | 0.25 | 71.75 ± 3.35% | −1.4E+0 | −1.4E+0 | 0.81 | – |
| Cc1cc(C)cc(-n2cnc3cc(C(=O)NCc4ccccc4Cl)ccc32)c1 [SR-01000579741] | 13.52 ± 10.95% | > 13 µM | 21.81 ± 2.59% | > 13 µM | 3.1 µM | 0.28 | 81.29 ± 5.44% | −62.7E−3 | −63.1E−3 | 2.25 | – |
